# In ChEMBL document CHEMBL1201862, “PubChem BioAssay data set” (2004):
# Active and inactive are the calls of the source.
# Experiments:
# [1] = ADAM10 inhibitors, peptide cleavage, dose response, biochemical, QFRET (AID 743254);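 further: ADAM10 enzyme with the DM2 quenched FRET peptide as substrate; EDANS fluorescence gain as the protease cuts the substrate; inhibitor potency against ADAM10 proteolytic activity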
# [2] = HEK293T cytotoxicity, dose response, cytotoxicity control for miR-122 modulator project, cell-based, inhibitor set, cherry-pick, set 2 (AID 720697); assay type: functional
# [3] = target: Beta-lactamase (Salmonella choleraesuis (strain SC-B67), UniProt Q5J463); assay: Epi-absorbance-based counterscreen for selective VIM-2 inhibitors: dose response biochemical high throughput screening assay to identify inhibitors of TEM-1 serine-beta-lactamase.
# Chain of Beta-lactamase (Salmonella choleraesuis (strain SC-B67), UniProt Q5J463) (Q5J463 whole entry): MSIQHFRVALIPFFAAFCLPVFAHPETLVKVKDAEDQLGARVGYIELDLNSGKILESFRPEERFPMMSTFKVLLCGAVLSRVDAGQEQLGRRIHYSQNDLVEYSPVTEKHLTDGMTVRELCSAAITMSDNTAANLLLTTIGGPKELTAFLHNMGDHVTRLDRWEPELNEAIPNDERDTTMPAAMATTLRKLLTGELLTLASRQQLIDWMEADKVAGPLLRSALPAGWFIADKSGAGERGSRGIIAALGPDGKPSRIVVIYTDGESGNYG
# [4] = target: T1, Beta-lactamase (Pseudomonas aeruginosa, UniProt Q79MP6); assay: IMP-1 metallo-beta-lactamase inhibitors, dose response, selectivity assay for VIM-2 inhibitor project, biochemical, epi-absorbance (AID 1920)
# T1 sequence (Q79MP6 whole entry): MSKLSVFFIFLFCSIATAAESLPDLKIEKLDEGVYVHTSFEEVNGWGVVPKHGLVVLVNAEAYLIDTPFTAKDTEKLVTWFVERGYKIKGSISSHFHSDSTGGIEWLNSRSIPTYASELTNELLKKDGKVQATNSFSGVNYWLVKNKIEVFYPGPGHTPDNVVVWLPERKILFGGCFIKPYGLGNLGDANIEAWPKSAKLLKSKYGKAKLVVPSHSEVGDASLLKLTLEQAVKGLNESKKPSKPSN
# [5] = target: T1, Beta-lactamase; assay: […] counterscreen for selective VIM-2 inhibitors: dose response biochemical high throughput screening assay to identify inhibitors of IMP-1 metallo-beta-lactamase.
# [6] = Luminescence Cell-Based Dose Confirmation HTS to Identify Activators of 5'UTR Stem-Loop Driven Alpha-Synuclein mRNA Translation in H4 Neuroglioblastoma Cells. [Related pubchem assays: 1829 (Project Summary), 1814 (Primary HTS)]; assay type: functional
# [7] = Luminescence Cell-Based Dose Response HTS to Identify Activators of Luciferase Translation or Activity in H4 […] Cells. [Related pubchem assays: 1829 (Project Summary), 1814 (Primary HTS)]; assay type: functional
# [8] = system: H4; assay: Luminescence Cell-Based Dose Response HTS to Identify Activators of 5'UTR Stem-Loop Driven Prion Protein mRNA Translation in H4 Neuroglioblastoma Cells. [Related pubchem assays: 1829 (Project Summary), 1814 (Primary HTS)]; assay type: functional; settings: Homo sapiens
# [9] = target: T2, Sentrin-specific protease 8 (Homo sapiens, UniProt Q96LD8); assay type: functional
# T2 sequence (Q96LD8 whole entry): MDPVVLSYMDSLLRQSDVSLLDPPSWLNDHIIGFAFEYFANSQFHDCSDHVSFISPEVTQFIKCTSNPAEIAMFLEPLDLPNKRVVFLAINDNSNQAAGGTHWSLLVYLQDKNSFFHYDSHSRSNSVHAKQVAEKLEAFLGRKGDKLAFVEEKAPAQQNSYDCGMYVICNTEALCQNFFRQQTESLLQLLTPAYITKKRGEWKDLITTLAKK
# [10] = target: T2, Sentrin-specific protease 8; assay type: functional; remark: listed apart in the source
# [11] = cells; assay type: functional, cell-based
# [12] = target: T3, Trace amine-associated receptor 1 (Homo sapiens, UniProt Q96RJ0); assay: Fluorescence-based cell-based high throughput dose response assay to identify agonists of the human trace amine associated receptor 1 (TAAR1).; assay type: functional
# T3 sequence (Q96RJ0 whole entry): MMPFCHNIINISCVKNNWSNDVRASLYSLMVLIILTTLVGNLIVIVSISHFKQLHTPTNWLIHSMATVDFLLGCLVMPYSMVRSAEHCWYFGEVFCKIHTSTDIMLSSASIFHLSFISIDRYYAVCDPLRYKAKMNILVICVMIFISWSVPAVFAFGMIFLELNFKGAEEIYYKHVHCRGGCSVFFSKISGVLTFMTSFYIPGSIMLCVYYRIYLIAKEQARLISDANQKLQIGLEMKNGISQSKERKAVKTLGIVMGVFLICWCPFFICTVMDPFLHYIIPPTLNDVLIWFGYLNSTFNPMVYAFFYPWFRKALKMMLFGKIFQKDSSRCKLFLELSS
# [13] = target: T3, Trace amine-associated receptor 1; assay: Counterscreen for agonists of the human trace amine associated receptor 1 (hTAAR1): Fluorescence-based cell-based high throughput dose response assay to identify hTAAR1 agonist that also desensitize TAAR1 receptor response.; assay type: functional
# [14] = cells; assay type: functional, cell-based; remark: listed apart in the source
# [15] = target: T4, DNA repair and recombination protein RAD54-like (Homo sapiens, UniProt Q92698); assay: inhibitors of human RAD54 branch migration, confirmation, biochemical, fluorescence, cherry-picked samples, dose series (AID 651657); assay type: functional
# T4 sequence (Q92698 whole entry): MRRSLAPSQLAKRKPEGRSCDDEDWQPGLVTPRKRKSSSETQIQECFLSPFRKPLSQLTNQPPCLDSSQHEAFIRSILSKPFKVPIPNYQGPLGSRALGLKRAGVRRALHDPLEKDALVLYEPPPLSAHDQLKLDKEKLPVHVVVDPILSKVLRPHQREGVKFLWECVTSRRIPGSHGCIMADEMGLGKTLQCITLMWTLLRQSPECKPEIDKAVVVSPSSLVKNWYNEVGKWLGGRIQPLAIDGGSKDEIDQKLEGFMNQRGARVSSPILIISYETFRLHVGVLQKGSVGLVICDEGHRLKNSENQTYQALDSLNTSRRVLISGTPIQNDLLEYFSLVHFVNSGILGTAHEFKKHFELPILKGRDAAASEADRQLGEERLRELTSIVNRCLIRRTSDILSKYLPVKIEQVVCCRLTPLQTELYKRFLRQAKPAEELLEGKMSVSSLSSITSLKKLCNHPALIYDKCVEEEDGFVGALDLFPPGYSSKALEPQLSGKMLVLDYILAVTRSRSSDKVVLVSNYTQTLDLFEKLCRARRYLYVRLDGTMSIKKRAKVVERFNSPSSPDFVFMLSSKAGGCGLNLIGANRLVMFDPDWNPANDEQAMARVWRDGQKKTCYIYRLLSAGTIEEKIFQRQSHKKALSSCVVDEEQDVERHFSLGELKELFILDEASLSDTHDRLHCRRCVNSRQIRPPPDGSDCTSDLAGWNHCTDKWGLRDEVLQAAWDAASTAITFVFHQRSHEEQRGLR
# [16] = target: T5, DNA repair protein RAD52 homolog (Homo sapiens, UniProt P43351); assay type: functional, biochemical
# T5 sequence (P43351 whole entry): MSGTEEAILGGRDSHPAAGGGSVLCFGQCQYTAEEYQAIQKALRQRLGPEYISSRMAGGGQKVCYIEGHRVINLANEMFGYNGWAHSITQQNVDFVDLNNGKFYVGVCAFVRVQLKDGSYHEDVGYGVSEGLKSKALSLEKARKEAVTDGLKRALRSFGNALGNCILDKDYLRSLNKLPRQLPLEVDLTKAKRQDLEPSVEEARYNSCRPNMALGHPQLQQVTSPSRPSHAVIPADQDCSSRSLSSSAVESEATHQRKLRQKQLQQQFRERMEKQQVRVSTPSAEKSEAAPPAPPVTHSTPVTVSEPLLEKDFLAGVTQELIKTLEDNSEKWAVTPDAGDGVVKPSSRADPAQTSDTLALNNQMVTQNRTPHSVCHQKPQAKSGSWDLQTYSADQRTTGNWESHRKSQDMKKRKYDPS
# [17] = target: SWI/SNF-related matrix-associated actin-dependent regulator of chromatin subfamily A member 2 (Homo sapiens, UniProt P51531); assay: Luminescence-based cell-based high throughput dose response assay to identify activators of the function of SWI/SNF related, matrix associated, actin dependent regulator of chromatin, subfamily a, member 2 (SMARCA2, BRM).; assay type: functional
# Chain of SWI/SNF-related matrix-associated actin-dependent regulator of chromatin subfamily A member 2 (P51531 whole entry): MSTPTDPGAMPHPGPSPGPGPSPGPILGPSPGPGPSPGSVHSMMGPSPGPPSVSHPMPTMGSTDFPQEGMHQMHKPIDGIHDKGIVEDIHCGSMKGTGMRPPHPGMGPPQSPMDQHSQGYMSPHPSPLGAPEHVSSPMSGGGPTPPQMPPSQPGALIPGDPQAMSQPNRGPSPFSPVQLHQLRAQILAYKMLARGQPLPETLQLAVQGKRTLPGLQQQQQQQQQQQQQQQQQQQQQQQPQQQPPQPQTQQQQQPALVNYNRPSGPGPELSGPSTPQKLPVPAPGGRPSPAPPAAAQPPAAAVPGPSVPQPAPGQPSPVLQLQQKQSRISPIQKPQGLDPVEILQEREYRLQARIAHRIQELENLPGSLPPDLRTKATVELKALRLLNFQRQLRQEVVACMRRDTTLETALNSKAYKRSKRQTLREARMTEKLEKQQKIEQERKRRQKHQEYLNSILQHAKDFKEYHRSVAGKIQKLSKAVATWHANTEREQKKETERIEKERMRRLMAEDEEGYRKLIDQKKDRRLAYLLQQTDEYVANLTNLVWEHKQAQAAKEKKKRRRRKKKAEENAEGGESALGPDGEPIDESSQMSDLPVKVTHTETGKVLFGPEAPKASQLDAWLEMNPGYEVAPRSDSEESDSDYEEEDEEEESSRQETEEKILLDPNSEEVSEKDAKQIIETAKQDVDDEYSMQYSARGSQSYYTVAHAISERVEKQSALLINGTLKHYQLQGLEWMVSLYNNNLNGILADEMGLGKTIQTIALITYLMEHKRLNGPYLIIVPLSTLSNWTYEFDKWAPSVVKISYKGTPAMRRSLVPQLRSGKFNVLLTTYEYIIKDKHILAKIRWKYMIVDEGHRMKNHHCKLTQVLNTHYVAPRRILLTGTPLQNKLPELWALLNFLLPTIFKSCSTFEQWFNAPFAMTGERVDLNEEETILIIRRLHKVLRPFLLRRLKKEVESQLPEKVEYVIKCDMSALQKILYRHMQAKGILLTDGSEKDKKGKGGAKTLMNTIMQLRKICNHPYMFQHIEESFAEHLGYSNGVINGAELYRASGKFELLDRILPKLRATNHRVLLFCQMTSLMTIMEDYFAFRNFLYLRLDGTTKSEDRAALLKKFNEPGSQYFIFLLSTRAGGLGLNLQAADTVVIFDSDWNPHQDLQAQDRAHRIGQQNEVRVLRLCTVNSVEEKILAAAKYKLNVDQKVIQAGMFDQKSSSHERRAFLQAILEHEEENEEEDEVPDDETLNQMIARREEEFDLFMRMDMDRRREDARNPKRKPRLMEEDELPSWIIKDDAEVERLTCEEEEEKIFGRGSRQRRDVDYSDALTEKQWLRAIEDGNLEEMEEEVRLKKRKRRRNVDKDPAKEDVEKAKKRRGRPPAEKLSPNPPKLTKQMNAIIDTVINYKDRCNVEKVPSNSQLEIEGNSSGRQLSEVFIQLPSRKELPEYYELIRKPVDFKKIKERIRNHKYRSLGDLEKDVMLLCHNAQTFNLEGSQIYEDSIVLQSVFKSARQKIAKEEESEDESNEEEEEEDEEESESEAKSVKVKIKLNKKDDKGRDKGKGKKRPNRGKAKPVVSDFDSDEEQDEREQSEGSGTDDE
# [18] = Counterscreen for activators of the function of SWI/SNF related, matrix associated, actin dependent regulator of chromatin, subfamily a, member 2 (SMARCA2, BRM): Luminescence-based cell-based high throughput dose response assay to identify non-selective compounds using the VP16 reporter assay.; assay type: functional
# [19] = A549 cell cytotoxicity, dose response, cytotoxicity control, plate reader, cherry-pick, antagonist series (AID 743412); assay type: functional, cell-based
# [20] = HepG2 cell cytotoxicity, dose response, cytotoxicity control, plate reader, cherry-pick, antagonist series (AID 743416); assay type: functional, cell-based
# [21] = LGR2 antagonists, dose response, cell-based, HEK293, CRE-luciferase reporter, cherry pick, set 2 (AID 743343); assay type: functional;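 further: transfected cells were stimulated with diluted bursicon conditioned medium after compound addition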
# [22] = MC4R antagonists, dose response, counter-screen for LGR2 antagonist project, cell-based, plate reader, cherry pick (AID 743444); assay type: functional;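 further: transfected HEK 293 cells stimulated with alpha-MSH peptide; potency of inhibitors of the alpha-MSH evoked signal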
# [23] = HEK293 cell cytotoxicity, dose response, cytotoxicity control, plate reader, cherry-picked samples (AID 743446); assay type: functional, cell-based
# [24] = miR-122 activators in hepatoma reporter cells, dose response, cell-based, Huh7 psiCHECK-miR122, Renilla luciferase, cherry-picked (AID 651956); assay type: functional;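 further: huh7 hepatoma cells stably carrying a psiCHECK-2 miR-122 sensor plasmid; renilla luciferase signal reporting endogenous miR-122 activity after 48 h compound exposure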
# [25] = HEK293T cytotoxicity, dose response, cytotoxicity control for miR-122 modulator project, cell-based, activator set, cherry-pick (AID 720690); assay type: functional;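 further: HEK293T human cells scored for general mammalian cytotoxicity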
# [26] = inhibitors of TNFa-stimulated NF-kB luciferase reporter, dose response, selectivity assay for EBV LMP1 NF-kB inhibitor project, HEK293 LMP1 reporter cells, dry powder, set 2 (AID 624369); assay type: functional
# [27] = Luminescence Cell-Based Dose Response HTS to Identify Inhibitors of 5'UTR Stem-Loop Driven Prion Protein mRNA Translation in H4 Neuroglioblastoma Cells. [Related pubchem assays: 1827 (Project Summary), 1813 (Primary HTS)]; assay type: functional
# [28] = target: T6, Heat shock factor protein 1 (Mus musculus, UniProt P38532); assay: inhibition of MG132-induced HSE-luciferase signal, confirmation, cell-based, NIH3T3, luminescence, dose retest (AID 2382); assay type: functional;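 further: NIH3T3 fibroblasts with HSF1-driven luciferase reporter stressed by proteasome inhibitor MG132; luminescence from HSF1-driven luciferase expression after 8 hours of MG132 stress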
# T6 sequence (P38532 whole entry): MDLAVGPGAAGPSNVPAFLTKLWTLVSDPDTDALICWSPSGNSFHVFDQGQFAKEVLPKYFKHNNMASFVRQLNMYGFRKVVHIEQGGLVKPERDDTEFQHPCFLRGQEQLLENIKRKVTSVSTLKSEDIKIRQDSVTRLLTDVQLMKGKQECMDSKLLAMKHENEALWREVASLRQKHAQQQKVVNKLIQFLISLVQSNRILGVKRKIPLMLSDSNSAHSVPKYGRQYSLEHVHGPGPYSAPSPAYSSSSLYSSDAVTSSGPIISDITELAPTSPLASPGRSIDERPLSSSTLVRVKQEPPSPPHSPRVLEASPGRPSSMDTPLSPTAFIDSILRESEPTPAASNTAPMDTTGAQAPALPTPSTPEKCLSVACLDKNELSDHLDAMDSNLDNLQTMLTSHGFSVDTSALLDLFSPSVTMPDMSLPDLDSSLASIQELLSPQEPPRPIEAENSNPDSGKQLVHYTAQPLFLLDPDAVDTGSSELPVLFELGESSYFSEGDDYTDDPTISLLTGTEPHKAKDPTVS
# [29] = inhibitors of SNCA 5'UTR-driven reporter translation, confirmation, H4 neuroglioma cells, luminescence (AID 1988); assay type: functional, cell-based
compound,measurement,setting,value
Cc1ccc(C(S)=NCS(=O)(=O)c2ccc(C)cc2)cc1,IC50,[1],5.2 µM (active)
O=C(c1ccco1)N1CCN(C2CC(=O)N(c3ccccc3)C2=O)CC1 (centres undefined),AC50,[2],5.02 µM (active)
Cc1ccc(-c2c(C(=O)O)c(C(=O)O)c3n2CSC3)cc1,IC50,[3],> 59.6 µM (inactive)
same,IC50,[4],> 59.6 µM (inactive)
same,IC50,[5],15.7 µM (inactive)
O=C(/C=C/NNC(=O)c1ccc(Cl)cc1)c1ccccc1,EC50,[6],> 120 µM (not active)
same,EC50,[7],> 120 µM (not active)
same,EC50,[8],49.6 µM (active)
same,IC50,[9],> 100 µM (inactive)
same,IC50,[10],37.4 µM (active)
COc1ccccc1CCNCc1ccc(OC)c(OC)c1OC,IC50,[11],> 29.9 µM (inactive)
same,EC50,[12],2.37 µM (active)
same,IC50,[13],10.5 µM (inactive)
same,EC50,[14],> 29.9 µM (inactive)
COc1ccc(C)c2sc(N(CCN(C)C)C(=O)c3ccc4ccccc4c3)nc12,AC50,[15],79.4 µM (active)
same,AC50,[16],14.1 µM (active)
N=C(N)NCCC[C@@H]1NC(=O)c2cc([N+](=O)[O-])cc(F)c2NCCCC[C@@H](C(N)=O)NC(=O)CNC1=O,AC50,[16],14.8 µM (active)
O=C(CSc1nnc2ccccn12)Nc1ncc(Cl)cc1Cl,EC50,[17],> 91.2 µM (inactive)
same,EC50,[18],> 91.2 µM (inactive)
CCCc1cc(=O)oc2c3c(cc(OCC(=O)N4CCC[C@H]4C(=O)O)c12)OC(C)(C)CC3,IC50,[3],> 59.6 µM (inactive)
same,IC50,[4],> 59.6 µM (inactive)
same,IC50,[5],> 59.6 µM (inactive)
Nc1c(C(=O)N2CCOCC2)sc2nc3c(cc12)CCCC3,AC50,[19],> 52 µM (inactive)
same,AC50,[20],> 52 µM (inactive)
same,AC50,[21],2.38 µM (active)
same,AC50,[22],3.2 µM (active)
same,AC50,[23],> 52 µM (inactive)
O=C(NCCc1ccccc1)C(=O)NCC1OCCN1S(=O)(=O)c1ccccc1 (centres undefined),IC50,[11],> 29.9 µM (inactive)
same,EC50,[12],5.39 µM (active)
same,IC50,[13],11.8 µM (inactive)
same,EC50,[14],> 29.9 µM (inactive)
Clc1ccc(-c2nc3ccc(Cl)cn3c2Cc2ccsc2)cc1,EC50,[17],> 91.2 µM (inactive)
same,EC50,[18],> 91.2 µM (inactive)
CN1C(=O)c2cc(NC(=O)c3ccc(C(F)(F)F)cc3)ccc2OC[C@@H]2O[C@@H](CC(=O)NCc3ccc4c(c3)OCO4)CC[C@@H]21,AC50,[24],13.8 µM (active)
same,AC50,[25],23.8 µM (active)
O=C(NCCc1ccccc1Cl)[C@@H]1CCCN1C(=O)[C@@H](NC(=O)N1CCOCC1)C1CCCCC1,IC50,[11],> 29.9 µM (inactive)
same,EC50,[12],5.36 µM (active)
same,IC50,[13],6.35 µM (active)
same,EC50,[14],> 29.9 µM (inactive)
C[C@@H]1CN([C@H](C)CO)S(=O)(=O)c2ccc(/C=C/c3ccccc3)cc2O[C@H]1CN(C)C(=O)NC1CCCCC1,AbsAC35,[26],64.61 µM
Cc1ccc(-c2nc(-c3ccccc3)no2)c(Cl)c1,EC50,[27],8.33 µM (active)
same,EC50,[28],< 0.16 µM (active)
same,EC50,[29],9.82 µM (inconclusive)
same,AC50,[19],> 52 µM (inactive)
same,AC50,[20],> 52 µM (inactive)
same,AC50,[21],0.842 µM (active)
same,AC50,[22],1.26 µM (active)
same,AC50,[23],39.7 µM (active)
CCNC(=O)C[C@H]1CC[C@@H]2[C@@H](COc3ccc(NC(=O)c4cccc(C(F)(F)F)c4)cc3C(=O)N2C)O1,AC50,[2],0.469 µM (active)
